Reference: US6737383B1, “Herbicidal oxadiazolidines” (priority 1999, dated 2004)

Legend:
[1] = system: bedstraw; test: Test B pre/postemergence bedstraw; type: in vivo, Galium aparine
Method in brief: (§1)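 Herbicidal effect was estimated by eye on a ten-point control scale after plants spent twelve to sixteen days in a greenhouse following soil or foliar treatment. Foliar sprays targeted plants at one to four leaves; all doses were formulated in a non-phytotoxic solvent with surfactant.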

[2] = system: blackgrass; test: Test B pre/postemergence blackgrass; type: in vivo, Alopecurus myosuroides
Method in brief: as §1

[3] = system: surinam grass; test: Test B pre/postemergence surinam grass; type: in vivo, Brachiaria decumbens
Method in brief: as §1

[4] = system: cocklebur; test: Test B pre/postemergence cocklebur; type: in vivo, Xanthium strumarium
Method in brief: as §1

[5] = system: corn; test: Test B pre/postemergence corn; type: in vivo, Zea mays
Method in brief: as §1

[6] = system: crabgrass; test: Test B pre/postemergence crabgrass; type: in vivo, Digitaria sanguinalis
Method in brief: as §1

[7] = system: giant foxtail; test: Test B pre/postemergence giant foxtail; type: in vivo, Setaria faberii
Method in brief: as §1

[8] = system: morningglory; test: Test B pre/postemergence morningglory; type: in vivo, Ipomoea hederacea
Method in brief: as §1

[9] = system: pigweed; test: Test B pre/postemergence pigweed; type: in vivo, Amaranthus retroflexus
Method in brief: as §1

[10] = system: soybean; test: Test B pre/postemergence soybean; type: in vivo, Glycine max
Method in brief: as §1

[11] = system: sugar beet; test: Test B pre/postemergence sugar beet; type: in vivo, Beta vulgaris
Method in brief: as §1

[12] = system: wild oat; test: Test B pre/postemergence wild oat; type: in vivo, Avena fatua
Method in brief: as §1

[13] = system: purple nutsedge; test: Test B pre/postemergence purple nutsedge; type: in vivo, Cyperus rotundus; conditions: Postemergence
Method in brief: as §1

[14] = system: rice; test: Test B flood test rice; type: in vivo, Oryza sativa
Method in brief: (§2)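 Each value is a visual injury score relative to controls, with 10 meaning complete control and 0 no effect. Evaluation took place twelve to sixteen days after the 2-leaf-stage plants were treated and kept in the greenhouse.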

[15] = system: smallflower flatsedge; test: Test B flood test smallflower flatsedge; type: in vivo, Cyperus difformis
Method in brief: as §2

[16] = system: duck salad; test: Test B flood test duck salad; type: in vivo, Heteranthera limosa
Method in brief: as §2

[17] = Preemergence, Rate 62 g/ha, scale of 0 to 10 where 0 is no effect and 10 is complete control
[18] = Preemergence, Rate 250 g/ha, scale of 0 to 10 where 0 is no effect and 10 is complete control
[19] = Preemergence, Rate 500 g/ha, scale of 0 to 10 where 0 is no effect and 10 is complete control
[20] = Rate 62 g/ha, Postemergence, scale of 0 to 10 where 0 is no effect and 10 is complete control
[21] = Rate 125 g/ha, Postemergence, scale 0 to 10
[22] = Rate 125 g/ha, Preemergence, scale of 0 to 10 where 0 is no effect and 10 is complete control
[23] = Rate 500 g/ha, Postemergence, scale 0 to 10
[24] = Rate 62 g/ha, headed Pre-emergence (flood test species), scale 0 to 10 (0 no effect, 10 complete control)
[25] = Rate 125 g/ha, Pre-emergence, flood test species, scale 0 to 10 where 0 is no effect and 10 is complete control
[26] = Rate 250 g/ha, Pre-emergence, flood-test species, scale 0 to 10, 0 is no effect, 10 is complete control
[27] = Rate 500 g/ha, Pre-emergence, flood test species, scale 0 to 10 (0 no effect, 10 complete control)

CC(=O)OCCCCn1c(=O)on(C(=O)N(c2ccc(F)cc2)C(C)C)c1=O [Compound 211]
Bedstraw plant response rating [1, 17]: 0 | Bedstraw plant response rating [1, 18]: 0 | Plant response rating, Bedstraw [1, 19]: 10 | Bedstraw plant response rating [1, 20]: 4 | Bedstraw plant response rating [1, 21]: 7 | Bedstraw plant response rating [1, 22]: 0 | Bedstraw plant response rating [1, 23]: 8 | Blackgrass plant response rating [2, 17]: 6 | Blackgrass plant response rating [2, 18]: 9 | Plant response rating, Blackgrass [2, 19]: 9 | Blackgrass plant response rating [2, 20]: 2 | Blackgrass plant response rating [2, 21]: 3 | Blackgrass plant response rating [2, 22]: 9 | Plant response rating (0 to 10; 0 is no effect, 10 is complete control), Blackgrass ([2]; Rate 250 g/ha, Postemergence): 4 | Blackgrass plant response rating [2, 23]: 4 | B. signalgrass plant response rating [3, 17]: 0 | B. signalgrass plant response rating ([3]; Preemergence, Rate 250 g/ha, scale 0 to 10, 0 is no effect, 10 is complete control): 0 | Plant response rating, B. signalgrass [3, 19]: 5 | B. signalgrass plant response rating [3, 20]: 0 | B. signalgrass plant response rating ([3]; Rate 125 g/ha, Postemergence, scale 0 (no effect) to 10 (complete control)): 0 | B. signalgrass plant response rating [3, 22]: 0 | Plant response rating (0 to 10; 0 is no effect, 10 is complete control), B. signalgrass ([3]; Rate 250 g/ha, Postemergence): 0 | B. signalgrass plant response rating ([3]; Rate 500 g/ha, Postemergence, scale 0 to 10, 0 no effect, 10 complete control): 0 | Cocklebur plant response rating [4, 17]: 0 | Cocklebur plant response rating [4, 18]: 0 | Plant response rating, Cocklebur [4, 19]: 0 | Cocklebur plant response rating [4, 20]: 0 | Cocklebur plant response rating [4, 21]: 0 | Cocklebur plant response rating [4, 22]: 0 | Plant response rating (0 to 10; 0 is no effect, 10 is complete control), Cocklebur ([4]; Rate 250 g/ha, Postemergence): 0 | Cocklebur plant response rating [4, 23]: 0 | Corn plant response rating [5, 17]: 0 | Corn plant response rating [5, 18]: 0 | Plant response rating, Corn [5, 19]: 0 | Corn plant response rating [5, 20]: 0 | Corn plant response rating [5, 21]: 0 | Corn plant response rating [5, 22]: 0 | Plant response rating (0 to 10; 0 is no effect, 10 is complete control), Corn ([5]; Rate 250 g/ha, Postemergence): 0 | Corn plant response rating [5, 23]: 0 | Crabgrass plant response rating [6, 17]: 0 | Crabgrass plant response rating [6, 18]: 3 | Plant response rating, Crabgrass [6, 19]: 3 | Crabgrass plant response rating [6, 20]: 0 | Crabgrass plant response rating [6, 21]: 0 | Crabgrass plant response rating [6, 22]: 0 | Plant response rating (0 to 10; 0 is no effect, 10 is complete control), Crabgrass ([6]; Rate 250 g/ha, Postemergence): 1 | Crabgrass plant response rating [6, 23]: 3 | Giant foxtail plant response rating [7, 17]: 3 | Giant foxtail plant response rating [7, 18]: 7 | Plant response rating, Giant foxtail [7, 19]: 8 | Giant foxtail plant response rating [7, 20]: 0 | Giant foxtail plant response rating [7, 21]: 0 | Giant foxtail plant response rating [7, 22]: 4 | Plant response rating (0 to 10; 0 is no effect, 10 is complete control), Giant foxtail ([7]; Rate 250 g/ha, Postemergence): 2 | Giant foxtail plant response rating [7, 23]: 3 | Morningglory plant response rating [8, 17]: 0 | Morningglory plant response rating [8, 18]: 0 | Plant response rating, Morningglory [8, 19]: 0 | Morningglory plant response rating [8, 20]: 4 | Morningglory plant response rating [8, 21]: 6 | Morningglory plant response rating [8, 22]: 0 | Plant response rating (0 to 10; 0 is no effect, 10 is complete control), Morningglory ([8]; Rate 250 g/ha, Postemergence): 6 | Morningglory plant response rating [8, 23]: 6 | Redroot pigweed plant response rating [9, 17]: 0 | Redroot pigweed plant response rating [9, 18]: 3 | Plant response rating, Redroot pigweed [9, 19]: 7 | Redroot pigweed plant response rating [9, 20]: 2 | Redroot pigweed plant response rating [9, 21]: 4 | Redroot pigweed plant response rating [9, 22]: 0 | Plant response rating (0 to 10; 0 is no effect, 10 is complete control), Redroot pigweed ([9]; Rate 250 g/ha, Postemergence): 4 | Redroot pigweed plant response rating [9, 23]: 5 | Soybean plant response rating [10, 17]: 0 | Soybean plant response rating [10, 18]: 0 | Plant response rating, Soybean [10, 19]: 0 | Soybean plant response rating [10, 20]: 3 | Soybean plant response rating [10, 21]: 4 | Soybean plant response rating [10, 22]: 0 | Plant response rating (0 to 10; 0 is no effect, 10 is complete control), Soybean ([10]; Rate 250 g/ha, Postemergence): 4 | Soybean plant response rating [10, 23]: 4 | Sugarbeets plant response rating [11, 17]: 0 | Sugarbeets plant response rating [11, 18]: 0 | Plant response rating, Sugarbeets [11, 19]: 8 | Sugarbeets plant response rating [11, 20]: 0 | Sugarbeets plant response rating [11, 21]: 2 | Sugarbeets plant response rating [11, 22]: 0 | Plant response rating (0 to 10; 0 is no effect, 10 is complete control), Sugarbeets ([11]; Rate 250 g/ha, Postemergence): 2 | Sugarbeets plant response rating [11, 23]: 2 | Wild oats plant response rating [12, 17]: 0 | Wild oats plant response rating [12, 18]: 5 | Plant response rating, Wild oats [12, 19]: 5 | Wild oats plant response rating [12, 20]: 0 | Wild oats plant response rating [12, 21]: 0 | Wild oats plant response rating [12, 22]: 4 | Plant response rating (0 to 10; 0 is no effect, 10 is complete control), Wild oats ([12]; Rate 250 g/ha, Postemergence): 0 | Nutsedge plant response rating ([13]; Rate 62 g/ha, scale of 0 to 10 where 0 is no effect and 10 is complete control): 0 | Nutsedge plant response rating ([13]; Rate 125 g/ha, scale 0 to 10): 0 | Plant response rating (0 to 10; 0 is no effect, 10 is complete control), Nutsedge ([13]; Rate 250 g/ha): 0 | Nutsedge plant response rating ([13]; Rate 500 g/ha, scale 0 to 10): 0 | Rice plant response rating [14, 24]: 0 | Rice plant response rating [14, 25]: 0 | Rice plant response rating [14, 26]: 0 | Rice plant response rating [14, 27]: 0 | S. Flatsedge plant response rating [15, 24]: 0 | S. Flatsedge plant response rating [15, 25]: 0 | S. Flatsedge plant response rating [15, 26]: 0 | S. Flatsedge plant response rating [15, 27]: 0 | Ducksalad plant response rating [16, 24]: 0 | Ducksalad plant response rating [16, 25]: 0 | Ducksalad plant response rating [16, 26]: 0 | Ducksalad plant response rating [16, 27]: 0
